Results filed as inconclusive are left out. The source made the active and inactive calls.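 How the source made its calls: active means compounds lowering the luciferase signal with a fitted half-maximal dose at most twice their top valid dose (cut at about 30 µM in these data); inconclusive means flat fits with moderate signal loss, or poor fits; inactive means the rest.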
Test system: Clone20 osteoblast Shn3 3'UTR firefly luciferase, 24 h
Assay: Shn3 3'UTR reporter inhibitors, dose response, cell-based, Clone20 osteoblasts, luminescence, dry powder, set 2 (AID 743417)

Point of comparison: c1ccc2c(-c3[nH]ncc3CNCCCn3ncc4ccccc43)cccc2c1, AC50 3.25 µM. Against it:
- CCc1c(C)nc2ncnn2c1NCCc1ccc(Cl)cc1 — within 1.5-fold, 2.17 µM
- O=C(Nc1ccc(Br)cc1)c1ccc(F)c(S(=O)(=O)NCc2cccs2)c1 — within 1.5-fold, 3.05 µM
- CC(=O)Nc1nc(C)c(-c2csc(Nc3cccc(C(C)=O)c3)n2)s1 — 1.9-fold lower, 1.67 µM
- CC1=NOC(=O)/C1=C\c1ccc(-c2ccccc2Br)o1 — 2-fold higher, 6.48 µM
- O=C(OCc1ccccc1)c1ccc(NCc2cc(O)ccc2O)cc1 — 4.6-fold lower, 0.711 µM
- Cc1nc2ccccc2cc1OCc1ccc(F)cc1 — 1.9-fold lower, 1.7 µM
- CCOC(=O)c1nc(S(C)(=O)=O)ncc1Cl — 2-fold higher, 6.37 µM
- CC(=O)c1ccc(NC(=O)C(C)OC(=O)/C=C/c2ccco2)cc1 (stereo not given) — 2.8-fold higher, 9.12 µM
- CCOC(=O)N1CCN(S(=O)(=O)c2ccc(C(=O)Nc3nc4ccc(F)cc4s3)cc2)CC1 — within 1.5-fold, 4.79 µM
- COc1ccc(C)cc1NS(=O)(=O)c1ccc(-c2cnc(C3CC3)o2)cc1 — within 1.5-fold, 3.76 µM
- COc1ccc(CCN2C(=O)CSC2=Nc2ccc(C(C)C)cc2)cc1OC — within 1.5-fold, 4.49 µM
- Cc1ccc(NC(=O)C2CCN(S(=O)(=O)c3ccc4c(c3)NC(=O)C(C)S4)CC2)cc1C (stereo not given) — within 1.5-fold, 2.61 µM
- Cc1cc([N+](=O)[O-])ccc1-c1ccc(C2Nc3ccccc3C(=O)N2O)o1 (stereo not given) — within 1.5-fold, 3.32 µM
- Oc1c(Cl)cc(CN2CCOCC2)c2cccnc12 — within 1.5-fold, 2.43 µM
- O=[N+]([O-])c1ccc(O)c(-c2cc(C(F)(F)F)nc(-c3ccccc3)n2)c1 — within 1.5-fold, 2.73 µM
- COc1ccccc1C(CCNCc1ccc(N(C)C)cc1)c1ccc(OC(C)C)cc1 (stereo not given) — 2-fold higher, 6.48 µM
- COc1ccc(CCN2CCC(Nc3nc4ccccc4n3Cc3ccc(F)cc3)CC2)cc1 — within 1.5-fold, 3.03 µM
- Cc1ccc(S(=O)(=O)N2CCN(c3ncnc4ccccc34)CC2)cc1 — 2.1-fold lower, 1.56 µM
- CCOC(=O)c1c2c(n(Cc3ccccc3)c1C)C(=O)C(=O)c1ccccc1-2 — within 1.5-fold, 2.3 µM
- COC(=O)c1cn(NC(=O)c2cc([N+](=O)[O-])ccc2F)c(=O)c2ccccc12 — within 1.5-fold, 2.85 µM
- O=[N+]([O-])c1ccc2ncnc(N3CCN(Cc4ccc5c(c4)OCO5)CC3)c2c1 — within 1.5-fold, 2.73 µM
- COc1cc(NS(=O)(=O)c2ccc(C)cc2)c2ncccc2c1 — within 1.5-fold, 3.35 µM
- CCC(=O)NC(c1ccc(Cl)cc1Cl)c1ccc2cccnc2c1O (stereo not given) — 2.7-fold lower, 1.19 µM
- CCOC(=O)C1(Cc2cccc(OC)c2)CCN(C/C=C/c2ccc(OC)cc2)CC1 — within 1.5-fold, 4.75 µM
- Cc1ccc(Nc2c(-c3ccccn3)nc3cccc(C)n23)cc1 — 1.7-fold lower, 1.9 µM
- c1ccc(CNc2ncnc3ccccc23)cc1 — 2.2-fold lower, 1.5 µM
- CC(CCc1ccccc1)NC(=O)COC(=O)c1ccc(S(C)(=O)=O)c([N+](=O)[O-])c1 (stereo not given) — within 1.5-fold, 3.34 µM
- O=C(c1cc2sccc2n1Cc1ccccc1)N1CCN(c2nc3ccccc3s2)CC1 — 3-fold lower, 1.09 µM
- c1ccc(-c2noc(-c3ccc4ccccc4c3)n2)nc1 — 1.6-fold lower, 1.98 µM
- CC(=O)c1ccc(N2CCC(c3cc(-c4ccc(Cl)cc4)n[nH]3)CC2)c([N+](=O)[O-])c1 — 1.5-fold higher, 5 µM
- COc1ccc(C(=O)NNC(=O)c2cccc(S(=O)(=O)N3CCOCC3)c2)cc1 — 7.1-fold higher, 23.2 µM
- Cc1ccc(-c2nc(NC(=O)c3nn(C)cc3[N+](=O)[O-])sc2C)cc1 — 2.5-fold lower, 1.3 µM
- C=C1C(=O)[C@]23C[C@H]1CC[C@H]2[C@]1(C)[C@@H](OC(C)=O)CC[C@@](C)(C(=O)OC)[C@H]1C[C@@H]3OC(C)=O — 1.8-fold higher, 5.99 µM
- COC(=O)C12OCC34C(CC5C(C)=C(O)C(=O)CC5(C)C3C(O)C1O)OC(=O)C(OC(=O)/C=C(\C)C(C)C)C24 (stereo not given) — lower, < 0.26 µM
- Cc1cc(S(=O)(=O)c2ccc([N+](=O)[O-])cn2)ccc1Br — within 1.5-fold, 3.69 µM
- C[C@H]1COC(=O)[C@H](NC(=O)OCC2c3ccccc3-c3ccccc32)C/C=C\C[C@H](CC(=O)N(CCO)Cc2ccccc2)C(=O)N1 — 1.9-fold higher, 6.08 µM
- CCCOC(=O)c1ccc(OCC(O)Cn2c(C)nc3ccccc32)cc1 (stereo not given) — 5.2-fold lower, 0.62 µM
- Cc1c(CCOC(=O)C23CC4(C)CC(C)(CC(C)(C4)C2)C3)sc[n+]1CC(=O)c1ccccc1 — 1.8-fold higher, 5.84 µM
- O=C(Nc1ccccc1)C1=C(c2ccccc2)S(=O)(=O)CCS1(=O)=O — 2.4-fold lower, 1.37 µM
- COc1ccc(-c2nc(CN3CCN(c4ncnc5ccccc45)CC3)c(C)o2)c(OC)c1 — 2-fold higher, 6.38 µM
- CCOc1ccc(S(=O)(=O)NCc2ccncc2)cc1 — 12-fold lower, 0.261 µM
- Oc1cc(-c2cccnc2)cc2cccnc12 — 2.9-fold higher, 9.27 µM
- Cc1cc(Br)c2c(c1)/C(=C/C(=O)c1cccs1)C(=O)N2 — 6.1-fold higher, 19.9 µM
- CC(C)CC(N)c1csc(NC(=O)c2cc(C(C)(C)C)nn2Cc2ccccc2)n1 (stereo not given) — within 1.5-fold, 4.85 µM
- CC(C)NCC(O)COc1cccc2ccccc12 (stereo not given) — 7.3-fold higher, 23.6 µM
- Cc1ccc(C)c(S(=O)(=O)N2CCN(c3ncnc4sccc34)CC2)c1 — 5.2-fold lower, 0.631 µM
- CC(C)CC(NC(=O)c1ccc(Cl)cc1)C(=O)OCC(=O)c1ccc2c(c1)NC(=O)CO2 (stereo not given) — within 1.5-fold, 4.01 µM
- Cc1ccc(CNC(=O)c2ccc3c(=O)c(O)c(-c4ccc(C)cc4)[nH]c3c2)cc1 — within 1.5-fold, 2.82 µM
- COc1ccc(NC(=O)CCOc2cc(C)ccc2C)cc1S(=O)(=O)N1CCCCC1 — 3.2-fold higher, 10.4 µM
- COc1ccc(C2=Nn3c([n+](C)c4ccccc43)SC2)cc1 — 2.8-fold lower, 1.16 µM
- O=S(=O)(NCc1ccncc1)c1ccc(F)c(F)c1 — 1.6-fold lower, 2.09 µM
- CCOc1ccc(CCN2C(=S)N([C@@H](CC(C)C)CN3CCCC3CN3C(=S)NC[C@@H]3Cc3ccc(O)cc3)C[C@@H]2Cc2ccc(O)cc2)cc1 (stereo not given in full) — 3.5-fold higher, 11.5 µM
- CC(C)=CCC/C(C)=C/CNC(=O)C[C@H]1C[C@H](C(=O)N(C(C)C)C(C)C)[C@@]2(C)c3[nH]c4cc(CCC(=O)N(C)C)ccc4c3CCN2C1=O — 1.6-fold lower, 2.05 µM
- OC[C@@H]1CN(Cc2ccc(-c3ccccc3)cc2)C[C@H](n2cnc3c(NCc4ccc(F)cc4)ncnc32)O1 — 2.1-fold lower, 1.58 µM
- Cc1cc(C)c(S(=O)(=O)N2Cc3ccccc3-n3nncc3C2)c(C)c1 — within 1.5-fold, 4.36 µM
- Cc1c(Cl)sn(-c2ccc(Cl)cc2)c1=O — 4.5-fold lower, 0.728 µM
- Oc1cc(Nc2ccccc2)cc2cccnc12 — 1.8-fold lower, 1.79 µM
- CCCCNc1c(-c2cccc(-c3ccc(OC)cc3)c2)nc2cc(C)ccn12 — 3.7-fold higher, 12 µM
- COc1ccc(OC)c(NC(=O)c2cc(-c3cc(F)ccc3OCC3CCCO3)n[nH]2)c1 (stereo not given) — 3.2-fold higher, 10.5 µM
- CC(C)CC(=O)NC(=S)Nc1ccc(N2CCN(C(=O)c3cccs3)CC2)cc1 — within 1.5-fold, 2.54 µM
- Cc1cccc(C(=O)Nc2ccc(C(=O)/C=C/c3ccncc3)cc2)c1 — within 1.5-fold, 3.41 µM
- Cc1ccc(C(=O)N2c3ccccc3N(Cc3ccccc3)C(=O)C2(C)C)cc1 — 2.1-fold higher, 6.92 µM
- CC(=O)c1ccc(N2CCN(S(=O)(=O)c3ccc(-c4cnc(C5CC5)o4)cc3)CC2)cc1 — 1.8-fold higher, 5.95 µM
- Cn1c(COc2ccc(Br)cc2)nnc1SC1CCc2ccccc2C1=O (stereo not given) — 11-fold higher, 35.2 µM
- Cn1cccc1C(=O)NC(=O)COC(=O)c1ccc(S(C)(=O)=O)c([N+](=O)[O-])c1 — 4.6-fold higher, 15.1 µM
- CCOC(=O)c1c(NC(=O)c2nn(CC)cc2Br)sc(C)c1C — 3.4-fold higher, 11 µM
- Cn1cnc([N+](=O)[O-])c1S(=O)(=O)Oc1ccccc1 — within 1.5-fold, 3.83 µM
- CCCCNc1c(-c2ccc(OC)c(Sc3ccc(OC)cc3)c2)nc2ccccn12 — 4-fold lower, 0.821 µM
- CC1CCC2C(=O)N(c3ccc(Cc4ccncc4)cc3)C(=O)C2C1 (stereo not given) — within 1.5-fold, 2.65 µM
- CCS(=O)(=O)c1ncc(Cl)c(C(=O)Nc2ccccc2OC)n1 — within 1.5-fold, 3.71 µM
- O=C1NC2C(=CC(O)C(O)C2O)c2cc3c(cc21)OCO3 (stereo not given) — within 1.5-fold, 2.22 µM
- COc1ccccc1N/C(N)=N/c1nc(CSc2ccc(C)cc2)cc(=O)[nH]1 — within 1.5-fold, 2.95 µM
- COc1ccc(S(=O)(=O)N(C)C)cc1NC(=O)C1CCN(c2ncnc3sc(C)c(C)c23)CC1 — 2.8-fold higher, 9.21 µM
- COc1ccc(-n2nnnc2S(=O)(=O)CC(=O)N2CCCCC2)cc1 — 1.7-fold higher, 5.44 µM
- CC(C)c1ccc(NC(=O)Nc2nc(C(N)COCc3ccccc3)cs2)cc1 (stereo not given) — 1.8-fold higher, 5.99 µM
- O=S(=O)(c1cc(F)ccc1F)N1CCN(c2ncnc3ccccc23)CC1 — 1.8-fold lower, 1.85 µM
- CC(C)(C)c1ccc(NC(=O)COc2ccc(-n3ccnc3)cc2)cc1 — 1.6-fold higher, 5.27 µM
- O=C1C(Br)=C(c2ccccc2)C(c2ccccc2)=C1c1ccccc1 — 7.1-fold lower, 0.46 µM
- CCc1ccc(CNC(=O)c2cc3c(C)nc4ccccc4c3o2)cc1 — 1.6-fold lower, 2.02 µM
- COc1ccc(C[C@H]2NC[C@H](O)[C@H]2OC(C)=O)cc1 — 3.7-fold lower, 0.882 µM
- COc1cc(OC)c(OC)cc1CNc1cc(C)ccc1OC — 5.6-fold higher, 18.1 µM
- CC1=C(C(=O)OC2CCCCC2)C(c2cccnc2)n2nnnc2N1 (stereo not given) — within 1.5-fold, 3.23 µM
- CCCN(CCC)S(=O)(=O)c1ccc(C(=O)Nc2nnc(-c3cc(OC)cc(OC)c3)o2)cc1 — within 1.5-fold, 2.64 µM
- COc1cc(C2c3cc4c(cc3C(OC3OC5COC(c6cccs6)OC5C(O)C3O)C3COC(=O)C23)OCO4)cc(OC)c1O (stereo not given) — 2.9-fold lower, 1.11 µM
- CCCCN1CC(COCc2ccccc2)Oc2cccc(Oc3cc(C)c(C)c(C)c3)c2S1(=O)=O (stereo not given) — 2.8-fold higher, 9.16 µM
- c1ccc(CCNc2ccnc3cc4ccccc4cc23)cc1 — 2-fold lower, 1.62 µM
- CCOc1ccccc1NC(=O)c1nc(S(=O)(=O)Cc2cccc(C)c2)ncc1Cl — 10-fold lower, 0.324 µM
- Fc1ccc2[nH]c3c(N4CCN(c5ccccc5)CC4)ncnc3c2c1 — within 1.5-fold, 3.78 µM
- CCCOc1ccc(C(=O)C(CN2CCCC2)c2ccccc2)cc1 (stereo not given) — within 1.5-fold, 4.84 µM
- COc1ccccc1NS(=O)(=O)c1cccc(C(=O)NC2CCN(Cc3ccccc3)CC2)c1 — 1.7-fold lower, 1.95 µM
- CCCC(=O)NC(=S)Nc1ccc(N2CCN(C(=O)c3cccs3)CC2)cc1 — 3.1-fold higher, 10.1 µM
- COc1ccc(-c2noc(CCCCC(=O)N3CCN(c4cc(C)ccc4C)CC3)n2)cc1 — 1.9-fold lower, 1.75 µM
- CCOC(=O)c1ccc(NC(=O)c2nc[nH]c2C(=O)NCCNC(=O)c2[nH]cnc2C(=O)Nc2ccc(C(=O)OCC)cc2)cc1 — 1.7-fold higher, 5.51 µM
- COc1ccccc1OCC(=O)c1[nH]c(C)c(C(C)=O)c1C — within 1.5-fold, 3.35 µM
- Cn1c(/C=C/c2ccc([N+](=O)[O-])o2)nc2ccccc2c1=O — within 1.5-fold, 2.37 µM
- COc1cc(C(=O)NC2CCCc3c2cnn3-c2ccccc2F)cc(OC)c1OC (stereo not given) — 4.2-fold lower, 0.781 µM
- CCC(=O)NC(c1ccc(C)cc1)c1ccc2cccnc2c1O (stereo not given) — 4.6-fold lower, 0.704 µM
- CC(O)CC(=O)OC[C@]12CC[C@H]3[C@@](C)(CC[C@H]4C(C)(C)CCC[C@]34C)[C@@H]1CC(C1=CC(=O)OC1O)O2 (stereo not given in full) — within 1.5-fold, 3.75 µM
- Cc1ccc2[nH]c3c(N4CCN(Cc5ccccc5)CC4)ncnc3c2c1 — within 1.5-fold, 4.18 µM
- COc1cc(C#Cc2c(-c3cncn3C)n(C)c3ccc(-c4ccc(OC)nc4)cc23)cc(OC)c1 — 6.3-fold higher, 20.5 µM
- COc1ccc(CNc2ncnc3sccc23)cc1OC — within 1.5-fold, 2.34 µM
- C#CC(=O)N(c1cccc(OC)c1)C(C(=O)NC1CCCC1)c1cccs1 (stereo not given) — within 1.5-fold, 3.8 µM
- CC(C)c1ccc(NC(=O)Nc2nc(C(N)CCc3ccccc3)cs2)cc1 (stereo not given) — 1.6-fold higher, 5.36 µM

With CC12CC(O)C3c4ccc(O)cc4CCC3C1CCC2=O (stereo not given) the AC50 was > 70 µM (inactive).

— PubChem BioAssay AID743417 (Broad Institute, 2014)
